Assays:
serotonin transporter = target: T1, serotonin transporter (Rattus norvegicus, UniProt P31652); experiment: Displacement of 3H-paroxetine from male rat frontal cortical membranes (serotonin transporter affinity); format: binding; conditions: read-out: 5-HT Transporter Affinity KI
T1 construct: displace ^3H-paroxetine from male rat frontal cortical membranes; from tissue; host or cells: male rat frontal cortex membranes

human 5-HT1A receptors = target: T2, human 5-HT1A receptors (Homo sapiens, UniProt P08908); experiment: Displacement of [3H] 8-OHDPAT from 5-HT1A receptor, CHO cells stably transfected with human 5-HT1A receptors; format: binding; conditions: CHO cells with human 5-HT1A receptors, read-out: 5-HT1A Receptor Affinity KI
T2 construct: expressed in transfected cells; host or cells: CHO cells
T2 sequence (P08908 1-422): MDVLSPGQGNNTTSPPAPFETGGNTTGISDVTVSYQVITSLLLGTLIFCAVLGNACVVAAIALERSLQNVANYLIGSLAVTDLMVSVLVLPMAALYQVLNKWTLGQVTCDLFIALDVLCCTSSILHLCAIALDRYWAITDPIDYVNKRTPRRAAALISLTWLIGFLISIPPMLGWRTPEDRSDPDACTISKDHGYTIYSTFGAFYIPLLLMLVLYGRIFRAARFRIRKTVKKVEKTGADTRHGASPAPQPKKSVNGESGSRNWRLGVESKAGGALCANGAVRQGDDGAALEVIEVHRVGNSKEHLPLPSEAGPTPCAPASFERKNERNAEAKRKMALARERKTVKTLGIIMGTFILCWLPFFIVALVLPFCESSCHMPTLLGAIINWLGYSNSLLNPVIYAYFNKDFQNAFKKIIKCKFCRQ
Source text: High affinity for the serotonin 5-HT1A receptor was established by testing the claimed compound's ability to displace [^3H] 8-OHDPAT (dipropylaminotetralin) from the 5-HT1A serotonin receptor following a modification of the procedure of Hall et al., J. Neurochem. 44, 1685 (1985) which utilizes CHO cells stably transfected with human 5-HT1A receptors.

[1] = target: T3, cloned human 5HT1A receptors (Homo sapiens, UniProt P08908); experiment: 35S-GTPγS binding assay, membranes containing cloned human 5HT1A receptors; format: biochemical; conditions: for IC50: antagonist potency, reversal of the effects of the standard agonist 8-OHDPAT, read-out: 5-HT1A Function IC50; for Emax: read-out: 5-HT1A Function (Imax)
T3 construct: expressed in transfected cells
T3 sequence (P08908 1-422): T2 sequence (P08908 1-422)
Protocol: Antagonist activity at 5-HT1A receptors was established by using a ^35S-GTPγS binding assay similar to that used by Lazareno and Birdsall (Br. J. Pharmacol. 109: 1120, 1993), in which the test compound's ability to affect the binding of ^35S-GTPγS to membranes containing cloned human 5HT1A receptors was determined. Agonists produce an increase in binding whereas antagonists produce no increase but rather reverse the effects of the standard agonist 8-OHDPAT. The test compound's maximum inhibitory effect is represented as the Imax, while its potency is defined by the IC50.

T1 sequence (P31652 whole entry): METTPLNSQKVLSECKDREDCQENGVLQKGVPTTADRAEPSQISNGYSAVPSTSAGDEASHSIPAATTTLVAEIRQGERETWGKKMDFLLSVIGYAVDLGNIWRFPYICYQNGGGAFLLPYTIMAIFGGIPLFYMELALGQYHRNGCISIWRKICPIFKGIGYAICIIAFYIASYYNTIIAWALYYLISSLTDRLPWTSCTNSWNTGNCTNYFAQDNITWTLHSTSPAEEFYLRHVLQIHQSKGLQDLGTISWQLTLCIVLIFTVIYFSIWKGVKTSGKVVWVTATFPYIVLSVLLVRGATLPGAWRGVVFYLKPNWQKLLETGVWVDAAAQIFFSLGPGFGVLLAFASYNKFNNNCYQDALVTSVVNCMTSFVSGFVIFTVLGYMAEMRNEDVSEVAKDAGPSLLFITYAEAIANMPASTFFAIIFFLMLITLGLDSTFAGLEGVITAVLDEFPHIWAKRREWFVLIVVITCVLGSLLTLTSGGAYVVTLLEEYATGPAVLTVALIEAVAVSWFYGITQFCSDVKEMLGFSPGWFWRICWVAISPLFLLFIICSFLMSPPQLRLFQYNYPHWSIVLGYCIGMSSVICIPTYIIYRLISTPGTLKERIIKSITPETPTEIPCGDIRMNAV

Ki (serotonin transporter) [nM]	Ki (human 5-HT1A receptors) [nM]	IC50 [1] [nM]	Emax ([1]; maximum inhibitory effect) [%]	5-HT1A Function (Imax) ([1]; maximum inhibitory effect) [%]	SMILES
6.6	0.35	10.4	59.3		Cc1ccc2c3c(ccc2n1)OC[C@H](CNCCCc1coc2ccccc12)O3 [Example 18]
1	5.46	233	100		Cc1ccc2c3c(ccc2n1)OC[C@H](CN(C)CCCc1c[nH]c2ccc(C#N)cc12)O3 [Example 32]
2.6	1.12	21.4	100		Cc1ccc2c3c(ccc2n1)OC[C@H](CNCCCc1cn(C)c2ccc(C#N)cc12)O3 [Example 37, 1-Methyl-3-{3-[(8-methyl-2,3-dihydro-[1,4]dioxino[2,3-f]quinolin-2-ylmethyl)-amino]-proyl}-1H-indole-5-carbonitrile]
1	4.42	191	75.2		Cc1ccc2c3c(ccc2n1)OCC(CN(C)CCCCn1ccc2ccc(F)cc21)O3 (centres unmarked) [Example 47, [4-(6-Fluoro-indol-1-yl)-butyl]-methyl-(8-methyl-2,3-dihydro-[1,4]dioxino[2,3-f]quinolin-2-ylmethyl)-amine]
5.9	3.26	180	90.2		Cc1ccc2c3c(ccc2n1)OCC(CNCCCc1cn(C)c2c(F)cc(F)cc12)O3 (centres unmarked) [Example 26, N-[3-(5,7-Difluoro-1-methyl-1H-indol-3-yl)propyl]-N-(8-methyl-2,3-dihydro-[1,4]dioxino[2,3-f]quinolin-2-ylmethyl)amine]
0.5	0.85	263	78.5		Cc1ccc2c3c(ccc2n1)OC[C@H](CNCCCCc1c[nH]c2ccc(C#N)cc12)O3 [Example 39, 3-{4-[(8-Methyl-2,3-dihydro-[1,4]dioxino[2,3-f]quinolin-2-ylmthyl)-amino]-butyl}-1H-indole-5-carbonitrile]
62	0.6	25.9	37.5		Cc1ccc2c3c(ccc2n1)OCC(CNCCc1csc2ccccc12)O3 (centres unmarked) [Example 21, N-[2-(1-Benzothien-3-yl)ethyl]-N-(8-methyl-2,3-dihydro-[1,4]dioxino[2,3-f]quinolin-2-ylmethyl)amine]
4.3	7.12	878	85.5		Cc1ccc2c3c(ccc2n1)OC[C@H](CN(C)CCCc1csc2ccccc12)O3 [Example 22, N-[3-(1-Benzothien-3-yl)propyl]-N-methyl-N-(8-mthyl-2,3-dihydro-[1,4]dioxino[2,3-f]quinolin-2-ylmthyl)amin]
2.2	21.2	200	73.5		Cc1ccc2c3c(ccc2n1)OCC(CNCCCn1ccc2ccc(F)cc21)O3 (centres unmarked) [Example 33, [3-(6-Fluoro-indol-1-yl)-propyl]-(8-methyl-2,3-dihydro-[1,4]dioxino[2,3-f]quinolin-2-ylmethyl)amine]
4.7	0.46	23.7	95.2		Cc1ccc2c3c(ccc2n1)OCC(CNCCCCc1c[nH]c2ccccc12)O3 (centres unmarked) [Example 9, N-[4-(1H-indol-3-yl)butyl]-N-(8-methyl-2,3-dihydro-[1,4]dioxino[2,3-f]quinolin-2-ylmethyl)amine]
1.62	1.68	27.8		78.3	Cc1ccc2c3c(ccc2n1)OCC(CNC(C)CCc1c[nH]c2ccc(F)cc12)O3 (single isomer, unassigned; isomer a) [Example 11 Isomer A]
1.8	2.51	125	100		Cc1ccc2c3c(ccc2n1)OCC(CN(C)CCCc1c[nH]c2c(F)cc(F)cc12)O3 (centres unmarked) [Example 16, N-[3-(5,7-Difluoro-1H-indol-3-yl)propyl]-N-methyl-N-(8-methyl-2,3-dihydro-[1,4]dioxino[2,3-f]quinolin-2-ylmethyl)amine]
1.6	5.16	412	100		CN(CCCc1c[nH]c2ccc(F)cc12)CC1COc2ccc3ncccc3c2O1 (centres unmarked) [Example 15, N-(2,3-Dihydro-[1,4]dioxino[2,3-f]quinolin-2-ylmethyl)-N-[3-(5-fluoro-1H-indol-3-yl)propyl]-N-methylamine]
8.1	0.29	193	100		Cc1ccc2c3c(ccc2n1)OCC(CN(C)CCCn1ccc2ccc(F)cc21)O3 (centres unmarked) [Example 34, [3-(6-Fluoro-indol-1-yl)-propyl]-methyl-(8-methyl-2,3-dihydro-[1,4]dioxino[2,3-f]quinolin-2-ylmethyl)-amine]
3.4	9.99	372	100		Cc1ccc2c3c(ccc2n1)OCC(CN(C)CCCCc1cn(C)c2ccc(F)cc12)O3 (centres unmarked) [Example 44, [4-(5-Fluoro-1-methyl-1H-indol-3-yl)-butyl]-methyl-(8-methyl-2,3-dihydro-[1,4]dioxino[2,3-f]quinolin-2-ylmethyl)-amine]
2.35	0.78	19	82		Cc1ccc2c3c(ccc2n1)OC[C@H](CNCCCc1csc2ccc(F)cc12)O3 [Example 51, N-[3-(5-Fluoro-1-benzothien-3-yl)propyl]-N-{[(2S)-8-methyl-2,3-dihydro[1,4]dioxino[2,3-f]quinolin-2-yl]methyl}amine]
46	0.63	52	78		Cc1ccc2c3c(ccc2n1)OC[C@H](CNCCc1coc2ccccc12)O3 [Example 17]
3.57	0.39	31.3	86.6		Cc1ccc2c3c(ccc2n1)OCC(CNCCCc1c[nH]c2ccccc12)O3 (centres unmarked) [Example 6, N-[3-(1H-Indol-3-yl)propyl]-N-(8-methyl-2,3-dihydro-[1,4]dioxino[2,3-f]quinolin-2-ylmethyl)amine]
14.6	0.2	50.1	95.4		COc1cccc2c(CCCNCC3COc4ccc5nc(C)ccc5c4O3)coc12 (centres unmarked) [Example 19, N-[3-(7-Methoxy-1-benzofuran-3-yl)propyl]-N-(8-methyl-2,3-dihydro-[1,4]dioxino[2,3-f]quinolin-2-ylmethyl)amine]
1	108	1090	100		CCCN(CCCc1c[nH]c2ccc(F)cc12)CC1COc2ccc3nc(C)ccc3c2O1 (centres unmarked) [Example 45, [3-(5-Fluoro-1H-indol-3-yl)-propyl]-(8-methyl-2,3-dihydro-[1,4]dioxino[2,3-f]quinolin-2-ylmethyl)-propyl-amine]
1.9	16.3	486	91.9		CCN(CCCc1c[nH]c2ccc(F)cc12)C[C@H]1COc2ccc3nc(C)oc3c2O1 [Example 36, Ethyl-[3-(5-fluoro-1H-indol-3-yl)-propyl]-(2-methyl-7,8-dihydro-[1,4]dioxino[2,3-g][1,3]benzoxazol-8-ylmethyl)-amine]
6.7	0.05	31.4	85.6		Cc1ccc2c3c(ccc2n1)OCC(CNCCCn1ccc2c(F)cccc21)O3 (centres unmarked) [Example 46, [3-(4-Fluoro-indol-1-yl)-propyl]-(8-methyl-2,3-dihydro-[1,4]dioxino[2,3-f]quinolin-2-ylmethyl)-amine]
47	4.19	909	58		Cc1ccc2c3c(ccc2n1)OCC(CNCCc1c[nH]c2ccc(F)cc12)O3 (centres unmarked) [Example 4, N-[2-(5-Fluoro-1H-indol-3-yl)ethyl]-N-(8-methyl-2,3-dihydro-[1,4]dioxino[2,3-f]quinolin-2-ylmethyl)amine]
2.82	0.38	188	100		Cc1ccc2c3c(ccc2n1)OC[C@H](CNCCCc1csc2ccccc12)O3 [Example 20]
1.4	4.45	157	100		Cc1nc2ccc3c(c2o1)OC(CN(C)CCCc1c[nH]c2ccc(F)cc12)CO3 (centres unmarked) [Example 24, N-[3-(5-Fluoro-1H-indol-3-yl)propyl]-N-methyl-N-(2-methyl-7,8-dihydro[1,4]dioxino[2,3-g][1,3]benzoxazol-8-ylmethyl)amine]
6.7	52.9	341	100		Cc1ccc2c3c(ccc2n1)OCC(CN(C)CCCc1cn(C)c2c(F)cc(F)cc12)O3 (centres unmarked) [Example 27, N-[3-(5,7-Difluoro-1-methyl-1H-indol-3-yl)propyl]-N-methyl-N-(8-methyl-2,3-dihydro-[1,4]dioxino[2,3-f]quinolin-2-ylmethyl)amine]

From patent US6800637B2, “Antidepressant indolealkyl derivatives of heterocycle-fused benzodioxan methylamines” (Wyeth, priority 2002, dated 2004)
